{
  "source": "patent US20090099197A1",
  "about": "(priority 2005, published 2009)",
  "key": {"wild-type BCR-ABL": {"test_system": "wild-type BCR-ABL", "settings": "cited from earlier work"}, "[1]": {"test_system": "imatinib-resistant BCR-ABL mutants", "settings": "cited from earlier work"}, "[2]": {"test_system": "K562 (erythromyeloblastoid CML) cells", "experiment": "cells", "settings": "Homo sapiens, K562, 72 h"}, "[3]": {"test_system": "K562/ADM (K562 cells over-expressing MDR-1)", "experiment": "In vitro proliferation/cytotoxicity assay, MDR-1 overexpressing K562/ADM cells", "assay_type": "cell-based, human", "settings": "for pIC50: Homo sapiens", "description": "Two cell lines were used: K562 (erythromyeloblastoid CML) and K562/ADM (K562 cells over-expressing MDR-1).\nExperiments were performed as described in Example 1 except that K562/ADM cells were used."}, "[4]": {"test_system": "K562/STI-571/R tumor xenografts", "experiment": "Tumor response in imatinib-resistant K562/STI-571/R xenograft model", "assay_type": "in vivo, SCID mice"}, "[5]": {"test_system": "K562-R (K562/STI-571/R) imatinib resistant cells"}, "[6]": {"test_system": "K562 intracranial CML tumor model", "experiment": "Survival of mice bearing intracranial K562 CML", "assay_type": "in vivo", "settings": "BIDx10", "description": "Extramedullary complications, particular in the CNS, are known risks of Ph+ALL or Ph+CML in lymphoid blast crisis. […] Both drugs were administered orally to mice inoculated intracranially (IC) with K562 cells using a BID×10 treatment schedule."}, "intracranial K562 cells": {"test_system": "intracranial K562 cells", "experiment": "Bioluminescence imaging of intracranially inoculated K562 cells", "assay_type": "in vivo, SCID mice", "settings": "15 mg/kg, 2qdx14, M-F, po", "description": "Experiments were performed as described in Example 4."}, "in vivo": {"experiment": "in vivo", "settings": "SCID, mouse", "description": "Concentrations and dosing frequency are as specified in FIG. 4A. […] Experiments were performed as described in Example 4."}, "[7]": {"test_system": "K562 (erythromyeloblastoid CML) cells"}, "[8]": {"test_system": "K562-R (K562/STI-571/R) imatinib resistant cells", "experiment": "cells", "settings": "Homo sapiens, K-562R"}, "[9]": {"test_system": "K562/ADM tumor xenografts", "experiment": "Tumor response in SC K562/ADM leukemia xenograft model", "assay_type": "in vivo, mice", "settings": "QDx14", "description": "(B) Activity versus K562/ADM tumor xenografts. Mice were implanted subcutaneously (SC) on Day 0 with K562/ADM. On Day 18 when tumors were at a size range of 100-200 mg, treatment began. […] Experiments were performed as described in Example 3.\nTumors implanted in mouse xenograft models were allowed to grow to a pre-determined size of 100-300 mg (tumors outside the range were excluded) and animals were evenly distributed to treatment and control groups. Treated animals were checked daily for treatment-related toxicity/mortality. […] The difference in body weight (Wt2−Wt1) provides a measure of treatment-related toxicity. Tumor weights (mg) were estimated from the formula: tumor weight=(length×width^2)/2.\nLog cell kill was also used as a measure of anti-tumor activity according to the following equation: log cell kill=T−C/(3.32×TVDT). In this equation: T=mean tumor weight at the end of treatment for the treated group; C=mean tumor weight at the end of treatment for the control group; and TVDT=median time (days) for control tumor weight to reach target size−median time (days) for control tumor weight to reach half the target size.\nA maximum tolerated dose (MTD), frequently equivalent to the optimal dose, was defined as a dose immediately below that causing unacceptable toxicity (i.e. more than one death) or, in the absence of any deaths, when accompanied by >20% loss of body weight."}, "[10]": {"settings": "K562 cells, 72 hours incubation"}},
  "note": "pIC50: −log10 of the molar value. Entries after “also recorded” stand apart in the source; their conditions may differ. Where two headings read alike, the source gives them in different places.",
  "data": [
    {"smiles": "Cc1cn(-c2cc(NC(=O)c3ccc(C)c(Nc4nccc(-c5cccnc5)n4)c3)cc(C(F)(F)F)c2)cn1", "note": "[AMN107]", "values": [
      {"measurement": "pIC50", "setting": "wild-type BCR-ABL", "result": "[…]"},
      {"measurement": "imatinib-resistant BCR-ABL mutants/mutations against which active", "setting": "[1]", "result": "32/33"}
    ]},
    {"smiles": "COc1cccc2c1C(=O)c1c(O)c3c(c(O)c1C2=O)C[C@@](O)(C(=O)CO)C[C@@H]3O[C@H]1C[C@H](N)[C@H](O)[C@H](C)O1", "note": "[adriamycin]", "values": [
      {"measurement": "pIC50", "setting": "[2]", "result": 7.68},
      {"measurement": "pIC50", "setting": "[3]; K562/ADM cells, read-out: IC50", "result": 5.90},
      {"measurement": "fold resistance (IC50 K562/ADM versus K562)", "setting": "[3]; K562/ADM versus parent K562 cells", "result": 60, "unit": "fold"}
    ]},
    {"smiles": "Cc1nc(Nc2ncc(C(=O)Nc3c(C)cccc3Cl)s2)cc(N2CCN(CCO)CC2)n1", "note": "[dasatinib, N-(2-chloro-6-methylphenyl)-2-[[6-[4-(2-hydroxyethyl)-1-piperazinyl]-2-methyl-4-pyrimidinyl]amino]-5-thiazolecarboxamide]", "values": [
      {"measurement": "effect on tumor", "setting": "[4]; dasatinib 5 mg/kg (lowest dose)", "result": "tumor regressed initially"},
      {"measurement": "effect on tumor size", "setting": "[4]; dasatinib, all doses except the lowest tested (5 mg/kg)", "result": "substantial reductions in tumor size"},
      {"measurement": "resistance factor (IC50 K562-R versus K562)", "setting": "[5]", "result": 6, "unit": "fold"},
      {"measurement": "pIC50", "setting": "[2]; [10]", "result": 9.15},
      {"measurement": "increase in lifespan (ILS)", "setting": "[6]; 5 mg/kg/adm oral", "result": 268, "unit": "%"},
      {"measurement": "increase in lifespan (ILS)", "setting": "[6]; 15 mg/kg/adm oral", "result": 450, "unit": "%"},
      {"measurement": "bioluminescence of intracranial K562 cells after treatment", "setting": "intracranial K562 cells", "result": "virtually no bioluminescence; also recorded: marked reduction of bioluminescence"},
      {"measurement": "Kp", "setting": "in vivo", "result": "0.05 to 0.1"},
      {"measurement": "pIC50", "setting": "[7]; [10]", "result": 9.30},
      {"measurement": "sensitivity of K562 cells (percent growth inhibition), comparison", "setting": "[7]; dasatinib versus imatinib or AMN107, FIG. 1A", "result": "significantly more sensitive to dasatinib than either imatinib or AMN107"},
      {"measurement": "pIC50", "setting": "[3]; K562, K562/ADM cells", "result": "~8.52"},
      {"measurement": "pIC50", "setting": "[8]", "result": 8.36},
      {"measurement": "anti-leukemic activity", "setting": "[9]; 5 mg/kg PO", "result": "inactive"},
      {"measurement": "growth delay", "setting": "[9]; 15 mg/kg PO, P=0.0009", "result": 16.7, "unit": "days"},
      {"measurement": "anti-leukemic activity", "setting": "[9]; 30 mg/kg PO", "result": "completely eliminated tumors"}
    ]},
    {"smiles": "Cc1ccc(NC(=O)c2ccc(CN3CCN(C)CC3)cc2)cc1Nc1nccc(-c2cccnc2)n1", "note": "[imatinib, reference compound]", "values": [
      {"measurement": "effect on tumors", "setting": "[4]; imatinib 75 and 150 mg/kg three times daily", "result": "little or no impact"}
    ]}
  ]
}
